Assay results taken from patent US5593984A, “Cephalosporin derivatives” (Yuhan Corporation, priority 1992, dated 1997).
In brackets after ≈: the same amount, converted by molar mass.

What was measured:
Type in all cases: cell-based
B. subtilis ATCC 6633 = test: MIC by agar dilution, B. subtilis ATCC 6633; conditions: Bacillus subtilis, ATCC6633, 17 h; B. subtilis ATCC 6633; agar dilution, Mueller-Hinton agar; read-out: Minimal Inhibitory Concentration (MIC)
Protocol: (§1) These MIC values were determined by agar dilution method: that is, two-fold dilutions of each of the test compounds were made and dispersed in a Mueller-Hinton agar medium; standard test strain which had the 10^6 CFU (Colony Forming Unit) per ml was inoculated on the medium with microplanter (Toyo, Japan), and incubated at 35°-37° C. for 17±1 hours. The structures of Ceftazidime (CAZ) and Cefotaxime (CTX) which are used as control compounds are as follows: [drawing 12]

Staph. aureus ATCC 6538P = test: MIC by agar dilution, Staph. aureus ATCC 6538P; conditions: Staphylococcus aureus, ATCC6538P, 17 h; Staph. aureus ATCC 6538P; agar dilution, Mueller-Hinton agar; read-out: Minimal Inhibitory Concentration (MIC)
Protocol: as §1

Staph. aureus Smith = test: MIC by agar dilution, Staph. aureus Smith; conditions: Staphylococcus aureus, 17 h, Mueller-Hinton agar, read-out: Minimal Inhibitory Concentration (MIC)
Protocol: as §1

Staph. aureus C-57 = test: MIC by agar dilution, Staph. aureus C-57; conditions: Staphylococcus aureus, C57, 17 h, Mueller-Hinton agar, read-out: Minimal Inhibitory Concentration (MIC)
Protocol: as §1

Staph. aureus C-5113 = test: MIC by agar dilution, Staph. aureus C-5113; conditions: Staphylococcus aureus, C5113, 17 h, Mueller-Hinton agar, read-out: Minimal Inhibitory Concentration (MIC)
Protocol: as §1

Staph. aureus C-5216 = test: MIC by agar dilution, Staph. aureus C-5216; conditions: Staphylococcus aureus, C5216, 17 h, Mueller-Hinton agar, read-out: Minimal Inhibitory Concentration (MIC)
Protocol: as §1

[1] = test system: S. epidermidis ATCC 12228; test: MIC by agar dilution, S. epidermidis ATCC 12228; conditions: Staphylococcus epidermidis, ATCC12228, 17 h; S. epidermidis ATCC 12228; agar dilution, Mueller-Hinton agar; read-out: Minimal Inhibitory Concentration (MIC)
Protocol: as §1

Ent. aerogenes IFO 12979 = test: MIC by agar dilution, Ent. aerogenes IFO 12979; conditions: Klebsiella aerogenes, IFO12979, 17 h, Mueller-Hinton agar, read-out: Minimal Inhibitory Concentration (MIC)
Protocol: as §1

Ent. cloacae IFO 13535 = test: MIC by agar dilution, Ent. cloacae IFO 13535; conditions: Enterobacter cloacae, IFO13535, 17 h; Ent. cloacae IFO 13535; agar dilution, Mueller-Hinton agar; read-out: Minimal Inhibitory Concentration (MIC)
Protocol: as §1

E. coli NIHJ JC-2 = test: MIC by agar dilution, E. coli NIHJ JC-2; conditions: Escherichia coli, NIHJJC2, 17 h; E. coli NIHJ JC-2; agar dilution, Mueller-Hinton agar; read-out: Minimal Inhibitory Concentration (MIC)
Protocol: as §1

E. coli No. 29 = test: MIC by agar dilution, E. coli No. 29; conditions: Escherichia coli, 17 h; E. coli No. 29; agar dilution, Mueller-Hinton agar; read-out: Minimal Inhibitory Concentration (MIC)
Protocol: as §1

E. coli DY-1 = test: MIC by agar dilution, E. coli DY-1; conditions: Escherichia coli, DY1, 17 h; E. coli DY-1; agar dilution, Mueller-Hinton agar; read-out: Minimal Inhibitory Concentration (MIC)
Protocol: as §1

K. pneumoniae NCTC 9632 = test: MIC by agar dilution, K. pneumoniae NCTC 9632; conditions: Klebsiella pneumoniae, NCTC9632, 17 h; K. pneumoniae NCTC 9632; agar dilution, Mueller-Hinton agar; read-out: Minimal Inhibitory Concentration (MIC)
Protocol: as §1

M. morganii DY-1 = test: MIC by agar dilution, M. morganii DY-1; conditions: Morganella morganii, DY1, 17 h; M. morganii DY-1; agar dilution, Mueller-Hinton agar; read-out: Minimal Inhibitory Concentration (MIC)
Protocol: as §1

[2] = test system: Ps. aeruginosa ATCC 10145; test: MIC by agar dilution, Ps. aeruginosa ATCC 10145; conditions: Pseudomonas aeruginosa, ATCC10145, 17 h, Mueller-Hinton agar, read-out: Minimal Inhibitory Concentration (MIC)
Protocol: as §1

[3] = test system: Ps. aeruginosa NCTC 10490; test: MIC by agar dilution, Ps. aeruginosa NCTC 10490; conditions: Pseudomonas aeruginosa, NCTC10490, 17 h, Mueller-Hinton agar, read-out: Minimal Inhibitory Concentration (MIC)
Protocol: as §1

Ps. aeruginosa DY-2 = test: MIC by agar dilution, Ps. aeruginosa DY-2; conditions: Pseudomonas aeruginosa, DY2, 17 h; Ps. aeruginosa DY-2; agar dilution, Mueller-Hinton agar; read-out: Minimal Inhibitory Concentration (MIC)
Protocol: as §1

P. vulgaris NCTC 8313 = test: MIC by agar dilution, P. vulgaris NCTC 8313; conditions: Proteus vulgaris, NCTC8313, 17 h; P. vulgaris NCTC 8313; agar dilution, Mueller-Hinton agar; read-out: Minimal Inhibitory Concentration (MIC)
Protocol: as §1

Prov. stuartii IFO 12930 = test: MIC by agar dilution, Prov. stuartii IFO 12930; conditions: Providencia stuartii, IFO12930, 17 h, Mueller-Hinton agar, read-out: Minimal Inhibitory Concentration (MIC)
Protocol: as §1

[4] = test system: Ser. marcescens IFO 12648; test: MIC by agar dilution, Ser. marcescens IFO 12648; conditions: Serratia marcescens, IFO12648, 17 h; Ser. marcescens IFO 12648; agar dilution, Mueller-Hinton agar; read-out: Minimal Inhibitory Concentration (MIC)
Protocol: as §1

CON=C(C(=O)NC1C(=O)N2C(C(=O)[O-])=C(C[n+]3ccn4c(CO)ccc4c3)CSC12)c1csc(N)n1 (stereo not drawn) [Ex. 21, 7-β-[(Z)-2-(2-aminothiazol-4-yl)-2-methoxyiminoacetamido]-3-(6-hydroxymethylpyrrolo[1,2-a]pyrazinium-2-yl)methyl-3-cephem-4-carboxylate]
MIC (B. subtilis ATCC 6633): 0.1 µg/mL (≈ 0.184 µM)
MIC (Staph. aureus ATCC 6538P): 0.2 µg/mL (≈ 0.368 µM)
MIC (Staph. aureus Smith): 0.78 µg/mL (≈ 1.43 µM)
MIC (Staph. aureus C-57): 50 µg/mL (≈ 92 µM)
MIC (Staph. aureus C-5113): 3.13 µg/mL (≈ 5.76 µM)
MIC (Staph. aureus C-5216): 0.78 µg/mL (≈ 1.43 µM)
MIC [1]: 0.2 µg/mL (≈ 0.368 µM)
MIC (Ent. aerogenes IFO 12979): ≤ 0.006 µg/mL
MIC (Ent. cloacae IFO 13535): 0.1 µg/mL (≈ 0.184 µM)
MIC (E. coli NIHJ JC-2): 0.012 µg/mL (≈ 0.0221 µM)
MIC (E. coli No. 29): ≤ 0.006 µg/mL
MIC (E. coli DY-1): ≤ 0.006 µg/mL
MIC (K. pneumoniae NCTC 9632): 0.012 µg/mL (≈ 0.0221 µM)
MIC (M. morganii DY-1): 0.012 µg/mL (≈ 0.0221 µM)
MIC [2]: 0.39 µg/mL (≈ 0.717 µM)
MIC [3]: 0.1 µg/mL (≈ 0.184 µM)
MIC (Ps. aeruginosa DY-2): 6.25 µg/mL (≈ 11.5 µM)
MIC (P. vulgaris NCTC 8313): ≤ 0.006 µg/mL
MIC (Prov. stuartii IFO 12930): ≤ 0.006 µg/mL
MIC [4]: 0.012 µg/mL (≈ 0.0221 µM)

Nc1nc(C(=NOCF)C(=O)NC2C(=O)N3C(C(=O)[O-])=C(C[n+]4ccn5c(CO)ccc5c4)CSC23)cs1 (stereo not drawn) [Ex. 22, 7-β-[(Z)-2-(2-aminothiazol-4-yl)-2-fluoromethoxyiminoacetamido]-3-(6-hydroxymethylpyrrolo[1,2-a]pyrazinium-2-yl)methyl-3-cephem-4-carboxylate]
MIC (B. subtilis ATCC 6633): 0.1 µg/mL (≈ 0.178 µM)
MIC (Staph. aureus ATCC 6538P): 0.2 µg/mL (≈ 0.356 µM)
MIC (Staph. aureus Smith): 0.78 µg/mL (≈ 1.39 µM)
MIC (Staph. aureus C-57): 50 µg/mL (≈ 89 µM)
MIC (Staph. aureus C-5113): 1.56 µg/mL (≈ 2.78 µM)
MIC (Staph. aureus C-5216): 0.78 µg/mL (≈ 1.39 µM)
MIC [1]: 0.025 µg/mL (≈ 0.0445 µM)
MIC (Ent. aerogenes IFO 12979): ≤ 0.006 µg/mL
MIC (Ent. cloacae IFO 13535): 0.05 µg/mL (≈ 0.089 µM)
MIC (E. coli NIHJ JC-2): ≤ 0.006 µg/mL
MIC (E. coli No. 29): ≤ 0.006 µg/mL
MIC (E. coli DY-1): ≤ 0.006 µg/mL
MIC (K. pneumoniae NCTC 9632): ≤ 0.006 µg/mL
MIC (M. morganii DY-1): ≤ 0.006 µg/mL
MIC [2]: 0.39 µg/mL (≈ 0.694 µM)
MIC [3]: 0.1 µg/mL (≈ 0.178 µM)
MIC (Ps. aeruginosa DY-2): 1.56 µg/mL (≈ 2.78 µM)
MIC (P. vulgaris NCTC 8313): ≤ 0.006 µg/mL
MIC (Prov. stuartii IFO 12930): ≤ 0.006 µg/mL
MIC [4]: ≤ 0.006 µg/mL

Nc1nc(C(=NOCC(=O)O)C(=O)NC2C(=O)N3C(C(=O)[O-])=C(C[n+]4ccn5c(CO)ccc5c4)CSC23)cs1 (stereo not drawn) [Ex. 23, 7-β-[(Z)-2-(2-aminothiazol-4-yl)-2-carboxymethoxyiminoacetamido]-3-(6-hydroxymethylpyrrolo[1,2-a]pyrazinium-2-yl)methyl-3-cephem-4-carboxylate]
MIC (B. subtilis ATCC 6633): 0.78 µg/mL (≈ 1.33 µM)
MIC (Staph. aureus ATCC 6538P): 1.56 µg/mL (≈ 2.65 µM)
MIC (Staph. aureus Smith): 6.25 µg/mL (≈ 10.6 µM)
MIC (Staph. aureus C-57): 100 µg/mL (≈ 170 µM)
MIC (Staph. aureus C-5113): 6.25 µg/mL (≈ 10.6 µM)
MIC (Staph. aureus C-5216): 12.5 µg/mL (≈ 21.3 µM)
MIC [1]: 0.39 µg/mL (≈ 0.664 µM)
MIC (Ent. aerogenes IFO 12979): 0.012 µg/mL (≈ 0.0204 µM)
MIC (Ent. cloacae IFO 13535): 0.2 µg/mL (≈ 0.34 µM)
MIC (E. coli NIHJ JC-2): 0.025 µg/mL (≈ 0.0425 µM)
MIC (E. coli No. 29): 0.025 µg/mL (≈ 0.0425 µM)
MIC (E. coli DY-1): 0.025 µg/mL (≈ 0.0425 µM)
MIC (K. pneumoniae NCTC 9632): 0.012 µg/mL (≈ 0.0204 µM)
MIC (M. morganii DY-1): 0.012 µg/mL (≈ 0.0204 µM)
MIC [2]: 0.78 µg/mL (≈ 1.33 µM)
MIC [3]: 0.39 µg/mL (≈ 0.664 µM)
MIC (Ps. aeruginosa DY-2): 3.13 µg/mL (≈ 5.33 µM)
MIC (P. vulgaris NCTC 8313): ≤ 0.006 µg/mL
MIC (Prov. stuartii IFO 12930): ≤ 0.006 µg/mL
MIC [4]: 0.012 µg/mL (≈ 0.0204 µM)

CC(C)(ON=C(C(=O)NC1C(=O)N2C(C(=O)[O-])=C(C[n+]3ccn4c(CO)ccc4c3)CSC12)c1csc(N)n1)C(=O)O (stereo not drawn) [Ex. 24, 7-β-[(Z)-2-(2-aminothiazol-4-yl)-2-(2-carboxyprop-2-oxyimino)acetamido]-3-(6hydroxymethylpyrrolo[1,2-a]pyrazinium-2-yl)methyl-3-cephem-4-carboxylate]
MIC (B. subtilis ATCC 6633): 1.56 µg/mL (≈ 2.53 µM)
MIC (Staph. aureus ATCC 6538P): 0.39 µg/mL (≈ 0.633 µM)
MIC (Staph. aureus Smith): 3.13 µg/mL (≈ 5.08 µM)
MIC (Staph. aureus C-57): 100 µg/mL (≈ 162 µM)
MIC (Staph. aureus C-5113): 1.56 µg/mL (≈ 2.53 µM)
MIC (Staph. aureus C-5216): 6.25 µg/mL (≈ 10.2 µM)
MIC [1]: 0.39 µg/mL (≈ 0.633 µM)
MIC (Ent. aerogenes IFO 12979): 0.2 µg/mL (≈ 0.325 µM)
MIC (Ent. cloacae IFO 13535): 6.25 µg/mL (≈ 10.2 µM)
MIC (E. coli NIHJ JC-2): 3.13 µg/mL (≈ 5.08 µM)
MIC (E. coli No. 29): 1.56 µg/mL (≈ 2.53 µM)
MIC (E. coli DY-1): 0.78 µg/mL (≈ 1.27 µM)
MIC (K. pneumoniae NCTC 9632): 0.78 µg/mL (≈ 1.27 µM)
MIC (M. morganii DY-1): 0.78 µg/mL (≈ 1.27 µM)
MIC [2]: 12.5 µg/mL (≈ 20.3 µM)
MIC [3]: 6.25 µg/mL (≈ 10.2 µM)
MIC (Ps. aeruginosa DY-2): 25 µg/mL (≈ 40.6 µM)
MIC (P. vulgaris NCTC 8313): 0.05 µg/mL (≈ 0.0812 µM)
MIC (Prov. stuartii IFO 12930): 0.39 µg/mL (≈ 0.633 µM)
MIC [4]: 0.39 µg/mL (≈ 0.633 µM)
